Legend:
[1] = test system: common ragweed; assay: Test F postemergence; format: in vivo, Ambrosia elation; settings: scale 0 to 100
Description: Seeds of plant species selected from corn (Zea mays), soybean (Glycine max), velvetleaf (Abutilon theophrasti), lambsquarters (Chenopodium album), wild poinsettia (Euphorbia heterophylla), pigweed, palmer (palmer pigweed, Amaranthus palmeri), common waterhemp (Amaranthus rudis), surinam grass (Brachiaria decumbens), large crabgrass (Digitaria sanguinalis), crabgrass, Brazil (Brazilian crabgrass, Digitaria horizontalis), fall panicum (Panicum dichotomiflorum), giant foxtail (Setaria faberii), green foxtail (Setaria viridis), goosegrass (Eleusine indica), johnsongrass (Sorghum halepense), common ragweed (Ambrosia elation), barnyardgrass (Echinochloa crus-galli), southern sandbur (Cenchrus echinatus), arrowleaf sida (Sida rhombifolia), Italian ryegrass (Lolium multiflorum), dayflower, VA (Virginia (VA) dayflower, Commelina virginica), field bindweed (Convolvulus arvensis), cocklebur (common cocklebur, Xanthium strumarium), morningglory (Ipomoea coccinea), nightshade (eastern black nightshade, Solanum ptycanthum), kochia (Kochia scoparia), yellow nutsedge (Cyperus esculentus), and hairy beggarticks (Bidens pilosa), were planted into a silt loam soil and treated preemergence with test chemicals formulated in a non-phytotoxic solvent mixture which included a surfactant.
At the same time, plants from these crop and weed species and also horseweed (Canada horseweed, Conyza canadensis), smartweed (ladysthumb smartweed, Polygonum persicaria), waterhemp_RES1, (ALS & Triazine resistant common waterhemp, Amaranthus rudis), and waterhemp_RES2, (ALS & HPPD resistant common waterhemp, Amaranthus rudis) were treated with postemergence applications of test chemicals formulated in the same manner. Plants ranged in height from 2 to 18 cm for postemergence treatments (1- to 4-leaf stage). Treated plants and controls were maintained in a greenhouse for 14 to 21 days, after which time all species were compared to controls and visually evaluated. Plant response ratings, summarized in Table F, are based on a scale of 0 to 100 where 0 is no effect and 100 is complete control. A dash (-) response means no test result.

[2] = test system: barnyardgrass; assay: Test E preemergence; format: in vivo, Echinochloa crus-galli; settings: 21 days, scale 0 to 100
Description: (§1) Seeds of plant species selected from bermudagrass (Cynodon dactylon), Surinam grass (Brachiaria decumbens), crabgrass, large (large crabgrass, Digitaria sanguinalis), crabgrass, naked (naked crabgrass, Digitaria nuda), foxtail, green (green foxtail, Setaria viridis), johnsongrass (Sorghum halepense), kochia (Kochia scoparia), morningglory (pitted morningglory, Ipomoea lacunosa), nutsedge, purple (purple nutsedge, Cyperus rotundus), ragweed (common ragweed, Ambrosia elation), mustard, black (black mustard, Brassica nigra), guineagrass (Panicum maximum), dallisgrass (Paspalum dilatatum), barnyardgrass (Echinochloa crus-galli), sandbur (southern sandbur, Cenchrus echinatus), sowthistle (common sowthistle, Sonchus oleraceous), ryegrass, Italian (Italian ryegrass, Lolium multiflorum), signalgrass (broadleaf signalgrass, Brachiaria platyphylla), dayflower, VA (Virginia (VA) dayflower, Commelina virginica), bluegrass (annual bluegrass, Poa annua), quackgrass (Elytrigia repens), mallow (common mallow, Malva sylvestris), buckwheat, wild (wild buckwheat, Polygonum convolvulus), leafy spurge (Euphorbia esula), common chickweed (Stellaria media), wild poinsettia (Euphorbia heterophylla), pigweed, palmer (palmer pigweed, Amaranthus palmeri), and pigweed (redroot pigweed, Amaranthus retroflexus) were planted into a blend of loam soil and sand and treated preemergence with test chemicals formulated in a non-phytotoxic solvent mixture which included a surfactant.
(§2) Treated plants and controls were maintained in a greenhouse for 21 days, after which time all species were compared to controls and visually evaluated. Plant response ratings, summarized in Table E, are based on a scale of 0 to 100 where 0 is no effect and 100 is complete control. A dash (-) response means no test result.

[3] = test system: fall panicum; assay: Test F postemergence; format: in vivo, Panicum dichotomiflorum; settings: scale 0 to 100
Procedure, shortened: (§3)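 Visual rating 0–100 vs untreated controls (0 = no effect, 100 = complete control) after 14–21 d greenhouse. Pre: seeds in silt loam soil. Post: plants 2–18 cm, 1–4 leaf. Formulation: non-phytotoxic solvent mix + surfactant.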

[4] = test system: waterhemp_RES2 (ALS & HPPD resistant common waterhemp); assay: Test F postemergence; format: in vivo, Amaranthus rudis; settings: scale 0 to 100
Procedure, shortened: as §3

[5] = test system: common waterhemp; assay: Test F postemergence; format: in vivo, Amaranthus rudis; settings: scale 0 to 100
Procedure, shortened: as §3

[6] = test system: waterhemp_RES1 (ALS & Triazine resistant common waterhemp); assay: Test F postemergence; format: in vivo, Amaranthus rudis; settings: scale 0 to 100
Procedure, shortened: as §3

[7] = test system: buckwheat, wild; assay: Test E preemergence; format: in vivo, Polygonum convolvulus; settings: 21 days, scale 0 to 100
Description: as §1, §2

[8] = test system: mustard, black; assay: Test E preemergence; format: in vivo, Brassica nigra; settings: 21 days, scale 0 to 100
Description: as §1, §2

CCCc1cc(C(=O)NCC(F)(F)F)nn1Cc1ccnc(C(F)(F)F)c1 [Compound 105]
Plant response rating, Common Ragweed ([1]; Postemergence, 31 g ai/ha): 50 | Plant response rating, Common Ragweed ([1]; Postemergence, 125 g ai/ha): 90 | Plant response rating, Common Ragweed ([1]; Postemergence, 250 g ai/ha): 90 | Plant response rating, Common Ragweed ([1]; postemergence, 62 g ai/ha): 70 | Plant response rating, Common Ragweed ([1]; postemergence, 500 g ai/ha): 95 | Plant response rating, Barnyardgrass ([2]; 16 g ai/ha): 35 | Plant response rating, Barnyardgrass ([2]; 31 g ai/ha): 70 | Plant response rating, Barnyardgrass ([2]; 62 g ai/ha): 85 | Plant response rating, Barnyardgrass ([2]; 125 g ai/ha): 95 | Plant response rating, Barnyardgrass ([2]; 250 g ai/ha): 98 | Plant response rating, Fall Panicum ([3]; Postemergence, 31 g ai/ha): 10 | Plant response rating, Fall Panicum ([3]; Postemergence, 125 g ai/ha): 30 | Plant response rating, Fall Panicum ([3]; Postemergence, 250 g ai/ha): 80 | Plant response rating, Fall Panicum ([3]; postemergence, 62 g ai/ha): 20 | Plant response rating, Fall Panicum ([3]; postemergence, 500 g ai/ha): 90 | Plant response rating, Waterhemp_RES2 ([4]; Postemergence, 31 g ai/ha): 60 | Plant response rating, Waterhemp_RES2 ([4]; Postemergence, 125 g ai/ha): 75 | Plant response rating, Waterhemp_RES2 ([4]; Postemergence, 250 g ai/ha): 85 | Plant response rating, Waterhemp_RES2 ([4]; postemergence, 62 g ai/ha): 70 | Plant response rating, Waterhemp_RES2 ([4]; postemergence, 500 g ai/ha): 95 | Plant response rating, Common Waterhemp ([5]; Postemergence, 31 g ai/ha): 65 | Plant response rating, Common Waterhemp ([5]; Postemergence, 125 g ai/ha): 65 | Plant response rating, Common Waterhemp ([5]; Postemergence, 250 g ai/ha): 75 | Plant response rating, Common Waterhemp ([5]; postemergence, 62 g ai/ha): 60 | Plant response rating, Common Waterhemp ([5]; postemergence, 500 g ai/ha): 80 | Plant response rating, Waterhemp_RES1 ([6]; Postemergence, 31 g ai/ha): 70 | Plant response rating, Waterhemp_RES1 ([6]; Postemergence, 125 g ai/ha): 75 | Plant response rating, Waterhemp_RES1 ([6]; Postemergence, 250 g ai/ha): 90 | Plant response rating, Waterhemp_RES1 ([6]; postemergence, 62 g ai/ha): 70 | Plant response rating, Waterhemp_RES1 ([6]; postemergence, 500 g ai/ha): 95 | Plant response rating, Buckwheat, Wild ([7]; 16 g ai/ha): 100 | Plant response rating, Buckwheat, Wild ([7]; 31 g ai/ha): 100 | Plant response rating, Buckwheat, Wild ([7]; 62 g ai/ha): 100 | Plant response rating, Buckwheat, Wild ([7]; 125 g ai/ha): 100 | Plant response rating, Buckwheat, Wild ([7]; 250 g ai/ha): 100 | Plant response rating, Mustard, Black ([8]; 16 g ai/ha): 100 | Plant response rating, Mustard, Black ([8]; 31 g ai/ha): 100 | Plant response rating, Mustard, Black ([8]; 62 g ai/ha): 100 | Plant response rating, Mustard, Black ([8]; 125 g ai/ha): 100 | Plant response rating, Mustard, Black ([8]; 250 g ai/ha): 100

Source: patent US20150105252A1, “SUBSTITUTED PYRAZOLES AS HERBICIDES” (E I DU PONT DE NEMOURS AND COMPANY, priority 2013, published 2015)
